For assay [1], the target named is T1, human dopamine D1 receptor (Homo sapiens, UniProt P21728).
T1 construct: expressed in transfected cells
Nature of the assay: Radioligand binding at human dopamine D1. To be noted: for Ki: read-out: pKi D1 (converted). On the procedure:
(§1) Other Dopamine receptors were prepared by known methods. (D1 : Dearry et al., Nature, 347, 72, (1990), deposited with the European Molecular Biological Laboratory (EMBL) Genbank as X55760; D3 : Sokoloff, P. et al., Nature, 347, 146 (1990), deposited with the European Molecular Biological Laboratory (EMBL) Genbank as X53944; D5 : Sunahara, R. K., et al., Nature, 350, 614 (1991), deposited with EMBL Genbank as X58454-HU HD 5DR).

Assay [2] has as its target T2, human dopamine D5 receptor (Homo sapiens, UniProt P21918).
T2 construct: expressed in transfected cells
Nature of the assay: Radioligand binding at human dopamine D5. On the procedure:
as §1

For another assay, the target named is T3, human 5-HT1A receptor (Homo sapiens, UniProt P08908).
T3 construct: expressed in transfected cells; host or cells: COS-7, transient (a cell line 5-HT1A-3, ATCC CRL 11889, is also named)
T3 sequence (P08908 1-422): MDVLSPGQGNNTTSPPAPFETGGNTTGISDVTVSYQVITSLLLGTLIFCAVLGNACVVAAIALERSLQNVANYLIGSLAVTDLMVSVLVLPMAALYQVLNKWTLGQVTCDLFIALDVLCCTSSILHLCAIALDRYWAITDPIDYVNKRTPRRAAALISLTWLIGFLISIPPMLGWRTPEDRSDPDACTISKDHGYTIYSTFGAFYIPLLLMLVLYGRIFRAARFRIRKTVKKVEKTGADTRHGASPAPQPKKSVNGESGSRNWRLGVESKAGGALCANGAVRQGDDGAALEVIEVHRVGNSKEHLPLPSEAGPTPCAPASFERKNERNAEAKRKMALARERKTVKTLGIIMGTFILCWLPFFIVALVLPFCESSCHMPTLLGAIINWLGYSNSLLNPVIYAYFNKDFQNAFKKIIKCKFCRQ
Nature of the assay: Radioligand binding at human 5-HT1A. How it is done:
The cDNA corresponding to the 5-HT1A receptor open reading frames and variable non-coding 5'- and 3'-regions, was cloned into the eukaryotic expression vector pCEXV-3. These constructs were transfected transiently into COS-7 cells by the DEAE-dextran method, and harvested after 72 hours. Radioligand binding assays were performed as described above for the 5-HT2 receptor, except that [3H]-8-OH-DPAT was used as the radioligand and nonspecific binding was determined by the addition of 10 μM mianserin.

In a further assay the target is T4, human 5-HT1E receptor (Homo sapiens, UniProt P28566).
T4 construct: expressed in transfected cells; host or cells: LM(tk-) clonal cell line, designated 5-HT1E-7, ATCC CRL 10913 (cell lysates)
T4 sequence (P28566 whole entry): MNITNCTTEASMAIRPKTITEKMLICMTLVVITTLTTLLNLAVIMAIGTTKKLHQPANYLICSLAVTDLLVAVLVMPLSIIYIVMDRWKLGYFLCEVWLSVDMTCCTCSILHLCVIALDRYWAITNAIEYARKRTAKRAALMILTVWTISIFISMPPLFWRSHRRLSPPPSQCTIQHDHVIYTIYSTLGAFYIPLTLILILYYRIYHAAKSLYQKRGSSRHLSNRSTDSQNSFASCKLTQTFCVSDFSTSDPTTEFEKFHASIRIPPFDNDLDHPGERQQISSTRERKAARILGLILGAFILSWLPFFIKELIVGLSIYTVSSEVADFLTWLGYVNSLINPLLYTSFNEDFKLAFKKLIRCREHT
Put plainly: Radioligand binding at human 5-HT1E. Conditions: [3H]serotonin; for Ki: read-out: pKi 5-HT1E (converted). How it is done: (§2) Human Serotonin Receptors
(§3) 5-HT1Dα, 5-HT1Dβ, 5-HT1E, 5-HT1F, and 5-HT7 Receptors: The cell lysates of LM(tk-) clonal cell line stably transfected with the genes encoding each of these 5-HT receptor-subtypes were prepared as described above. The cell line for the 5-HT1Dαreceptor, designated as Ltk-8-30-84, was deposited on Apr. 17, 1990, and accorded ATCC Accession No. CRL 10421. The cell for the 5-HT1Dβ receptor, designated as Ltk-11, was deposited on Apr. 17, 1990, and accorded ATCC Accession No. CRL 10422. The cell line for the 5-HT1E receptor, designated 5-HT1E -7, was deposited on Nov. 6, 1991, and accorded ATCC Accession No. CRL 10913. The cell line for the 5-HT1F receptor, designated L-5-HT1F, was deposited on Dec. 27, 1991, and accorded ATCC Accession No. CRL 10957. The cell line for the 5-HT7 receptor, designated as L-5-HT-4B, was deposited on Oct. 20, 1992, and accorded ATCC Accession No. CRL 11166. These preparations were suspended in 50 mM Tris-HCl buffer (pH 7.4 at 37° C.) containing 10 mM MgCl2, 0.2 mM EDTA, 10 μM pargyline, and 0.1% ascorbate. […] Nonspecific binding was determined in the presence of 10 μM serotonin. The bound radioligand was separated by filtration through GF/B filters using a cell harvester.

A further assay addresses T5, human 5-HT1F receptor (Homo sapiens, UniProt P30939).
T5 construct: expressed in transfected cells; host or cells: LM(tk-) clonal cell line, designated L-5-HT1F, ATCC CRL 10957 (cell lysates)
T5 sequence (P30939 1-366): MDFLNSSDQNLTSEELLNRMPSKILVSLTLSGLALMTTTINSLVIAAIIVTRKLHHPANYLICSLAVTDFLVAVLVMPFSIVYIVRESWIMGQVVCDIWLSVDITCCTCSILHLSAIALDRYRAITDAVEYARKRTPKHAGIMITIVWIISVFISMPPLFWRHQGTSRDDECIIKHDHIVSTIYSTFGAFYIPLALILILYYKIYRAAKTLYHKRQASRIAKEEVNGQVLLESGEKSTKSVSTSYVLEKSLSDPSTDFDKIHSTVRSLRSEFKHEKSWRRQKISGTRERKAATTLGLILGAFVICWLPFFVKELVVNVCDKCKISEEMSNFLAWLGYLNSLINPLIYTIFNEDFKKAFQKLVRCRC
Nature of the assay: Radioligand binding at human 5-HT1F. How it is done: as §2
as §3, with “17, 1990, and accorded ATCC Accession No. CRL 10421.” left out, “17, 1990, and accorded ATCC Accession No. CRL 10422.” left out, “6, 1991, and accorded ATCC Accession No. CRL 10913.” left out, “27, 1991, and accorded ATCC Accession No. CRL 10957.” left out, “20, 1992, and accorded ATCC Accession No. CRL 11166.” left out

The target of another assay is T6, human 5-HT7 receptor (Homo sapiens, UniProt P34969).
T6 construct: expressed in transfected cells; host or cells: LM(tk-) clonal cell line, designated L-5-HT-4B, ATCC CRL 11166 (cell lysates)
T6 sequence (P34969 1-445 isoform P34969-2): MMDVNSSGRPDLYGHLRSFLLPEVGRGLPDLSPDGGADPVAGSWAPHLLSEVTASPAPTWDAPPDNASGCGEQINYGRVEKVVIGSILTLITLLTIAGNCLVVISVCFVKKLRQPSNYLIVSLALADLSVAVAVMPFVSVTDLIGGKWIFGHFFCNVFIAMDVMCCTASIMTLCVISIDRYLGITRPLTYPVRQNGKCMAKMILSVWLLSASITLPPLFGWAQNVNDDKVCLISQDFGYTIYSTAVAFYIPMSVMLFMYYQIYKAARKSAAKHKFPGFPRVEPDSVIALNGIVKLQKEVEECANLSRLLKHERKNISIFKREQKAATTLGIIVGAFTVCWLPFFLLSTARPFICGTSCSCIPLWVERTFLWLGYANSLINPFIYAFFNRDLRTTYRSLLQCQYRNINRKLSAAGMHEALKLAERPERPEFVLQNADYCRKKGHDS
Nature of the assay: Radioligand binding at human 5-HT7. On the procedure: as §2
as §3, with “17, 1990, and accorded ATCC Accession No. CRL 10421.” left out, “17, 1990, and accorded ATCC Accession No. CRL 10422.” left out, “6, 1991, and accorded ATCC Accession No. CRL 10913.” left out, “27, 1991, and accorded ATCC Accession No. CRL 10957.” left out, “20, 1992, and accorded ATCC Accession No. CRL 11166.” left out

Where two headings read alike, the source gives them in different places.

T2 sequence (P21918 whole entry): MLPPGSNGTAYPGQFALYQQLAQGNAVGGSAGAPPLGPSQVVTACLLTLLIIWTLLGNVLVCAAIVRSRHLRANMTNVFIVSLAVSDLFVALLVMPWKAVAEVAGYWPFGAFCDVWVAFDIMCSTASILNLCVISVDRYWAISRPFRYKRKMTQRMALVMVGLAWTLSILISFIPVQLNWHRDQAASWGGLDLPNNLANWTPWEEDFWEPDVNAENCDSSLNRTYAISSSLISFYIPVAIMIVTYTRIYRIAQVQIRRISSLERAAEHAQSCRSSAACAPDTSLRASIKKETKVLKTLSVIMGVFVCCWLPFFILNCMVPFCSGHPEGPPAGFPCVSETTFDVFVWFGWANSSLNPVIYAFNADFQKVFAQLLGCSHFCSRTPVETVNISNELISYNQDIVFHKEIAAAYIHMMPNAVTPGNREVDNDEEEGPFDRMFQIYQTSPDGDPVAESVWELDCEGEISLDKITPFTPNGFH
T1 sequence (P21728 whole entry): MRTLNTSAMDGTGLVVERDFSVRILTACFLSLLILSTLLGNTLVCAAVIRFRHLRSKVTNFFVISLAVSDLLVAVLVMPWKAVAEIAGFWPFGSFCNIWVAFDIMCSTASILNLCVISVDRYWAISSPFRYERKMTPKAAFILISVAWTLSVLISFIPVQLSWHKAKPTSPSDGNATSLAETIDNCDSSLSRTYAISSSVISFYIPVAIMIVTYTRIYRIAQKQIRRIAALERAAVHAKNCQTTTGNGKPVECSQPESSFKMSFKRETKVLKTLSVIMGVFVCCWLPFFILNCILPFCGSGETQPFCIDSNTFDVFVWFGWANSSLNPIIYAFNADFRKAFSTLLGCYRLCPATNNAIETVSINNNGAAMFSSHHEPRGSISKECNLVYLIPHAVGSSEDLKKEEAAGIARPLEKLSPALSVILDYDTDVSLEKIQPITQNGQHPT

As to `COc1ccc(SC)c2c1C[C@@H]1[C@@H](C2)OCCN1C` (relative stereo) [SDZ NVI-085, (±)-trans-4-Methyl-6-methoxy-9-thiomethoxy-3,4,4a, 5,10,10a-hexahydro-2H-naphtho[2,3-b][1,4]oxazine], the Ki is 7.94 µM in assay [1]; 20 µM in assay [2] (read-out: pKi D5 (converted)); 0.0794 µM on human 5-HT1A receptor; 2 µM on human 5-HT1E receptor; 0.1 µM on human 5-HT1F receptor; 0.1 µM at human 5-HT7 receptor.

Regarding `CS(=O)(=O)Nc1c(O)ccc2c1CCCC2C1=NCCN1` (racemic) [Compound A-61603, (±)-N-[5-(4,5-Dihydro-1H-imidazol-2-yl)-2-hydroxy-5,6,7,8-tetra-hydronaphthalen-1-yl]methanesulfonamide], the Ki in assay [1] was 20 µM; in assay [2], 15.8 µM; at human 5-HT1A receptor ([3H]-8-OH-DPAT, read-out: pKi 5-HT1A (converted)), 3.98 µM; at human 5-HT1E receptor, 5.01 µM; at human 5-HT1F receptor ([3H]serotonin, read-out: pKi 5-HT1F (converted)), 5.01 µM; at human 5-HT7 receptor ([3H]serotonin, read-out: pKi 5-HT7 (converted)) it was 5.01 µM.

`CNCCc1ccc(O)c(NS(C)(=O)=O)c1` [SK&F 102652]: the “pKi D1” value in assay [1] came to 5.0. The “pKi D5” value in assay [2] came out at 4.8. The “pKi 5-HT1A” value on human 5-HT1A receptor ([3H]-8-OH-DPAT) is 5.8. At human 5-HT1E receptor, the “pKi 5-HT1E” value was found to be 5.3. Besides, the “pKi 5-HT1F” value on human 5-HT1F receptor ([3H]serotonin) came out at 5.3. Also, the “pKi 5-HT7” value on human 5-HT7 receptor ([3H]serotonin) came out at 5.3.

These data come from patent US5610174A, “Use of α1A -selective adrenoceptor agonists for the treatment of urinary incontinence” (priority 1995, dated 1997).
